Converted amounts (≈) assume the structure as drawn.
Columns and labels:
Type in all cases: cell-based
[1] = tested on: Staphylococcus epidermidis; test: In vitro sensory evaluation of culture odour, S. epidermidis; details: petroselinic acid 0.05 g/l in culture medium, panel of 12 experts
Protocol: (§1) The four microorganisms were each cultured in a liquid medium comprising 1.6 g/l of KH2PO4, 5.0 g/l of (NH4)2HPO4, 0.38 g/l of Na2SO4, 3.35 g/l of yeast nitrogen base (difco), 0.5 g/l of yeast extract and 0.5 g/l of MgCl2.6H2O, 1.0 g/l of Tween 80, 1.0 g/l of valine, 1.0 g/l of leucine, 1.0 g/l of isoleucine and 1.0 g/l of methionine. Depending on the analyses to be carried out (profile of the odour by GC/MS or sensory evaluation), the various types of culture medium were prepared either in 2 ml of culture (high-throughput screening format in 96-well microtitration plates) or else 200 ml in Erlenmeyer flasks. […]
(§2) The strains were cultured aerobically at 37° C. for 48 hours. The magnitude of the growth was measured with the optical density (OD) at 600 nm. The cultures were subsequently analyzed for volatile odorous compounds by SPME-GC/MS. […]
(§3) For the sensory analysis, the minimum amount of 200 ml of culture medium is necessary for a panel of 12 experts. […] Before the sensory analysis, the cultures were sterilized by filtration and the filtrates were stored at 4° C. until analyzed. In a first phase, the profile of the odour was evaluated on the basis of the strongest odours by the sensory panel, with an intensity grade which varies from 1 to 4 (1—a little, 2—moderate, 3—strong and 4—very strong). […]

[2] = tested on: Corynebacterium mucifaciens; test: In vitro sensory evaluation of culture odour, C. mucifaciens; details: petroselinic acid 0.05 g/l in culture medium, panel of 12 experts
Protocol: as §1, §2, §3

Corynebacterium striatum [3] = test: GC/MS (SPME) analysis of volatile compounds of cultures, C. striatum; details: C. striatum culture, 37° C., 48 hours
Protocol: as §1, with “flasks. For the GC/MS analyses, 2 ml of culture are sufficient but, for the sensory evaluation, for a panel of 12 people, the minimum amount of 200 ml of culture is necessary.” for “flasks.”
as §2
(§4) In order to determine the relative amount of volatile compounds present in the culture medium, a solid phase microextraction (SPME; Supelco, USA), gas chromatography coupled with mass spectrometry (HS-SPME-GC/MS; Fisons, USA), is carried out. […] The mass spectra were recorded over an m/z range of 30-250. […]

[4] = tested on: Corynebacterium mucifaciens; test: GC/MS (SPME) analysis of volatile compounds of cultures, C. mucifaciens; details: C. mucifaciens culture, 37° C., 48 hours
Protocol: as §1, with “flasks. For the GC/MS analyses, 2 ml of culture are sufficient but, for the sensory evaluation, for a panel of 12 people, the minimum amount of 200 ml of culture is necessary.” for “flasks.”
as §2, §4

[5] = tested on: Staphylococcus epidermidis; test: GC/MS (SPME) analysis of volatile compounds of cultures, S. epidermidis; details: S. epidermidis culture, 37° C., 48 hours
Protocol: as §1, with “flasks. For the GC/MS analyses, 2 ml of culture are sufficient but, for the sensory evaluation, for a panel of 12 people, the minimum amount of 200 ml of culture is necessary.” for “flasks.”
as §2, §4

Corynebacterium striatum [6] = test: In vitro sensory evaluation of culture odour, C. striatum; details: petroselinic acid 0.05 g/l in culture medium, panel of 12 experts
Protocol: as §1, §2, §3

Corynebacterium striatum [7] = test: Minimum Inhibitory Concentration (MIC), C. striatum; details: LMG19648, read-out: Minimum Inhibitory Concentration (MIC) C. striatum
Source text: (§5) The Minimum Inhibitory Concentration (MIC) on the microorganisms Corynebacterium striatum, Corynebacterium mucifaciens and Corynebacterium xerosis with the following active agents was compared.

Corynebacterium xerosis = test: Minimum Inhibitory Concentration (MIC), C. xerosis; details: DSM20743, read-out: Minimum Inhibitory Concentration (MIC) C. xerosis
Source text: as §5

[8] = tested on: Corynebacterium mucifaciens; test: Minimum Inhibitory Concentration (MIC), C. mucifaciens; details: LMG19067, read-out: Minimum Inhibitory Concentration (MIC) C. mucifaciens
Source text: as §5

[9] = acid added to culture medium (petroselinic 0.05, linolenic 0.5, myristic 0.005, azelaic 0.5 g/l)
[10] = petroselinic acid 0.05 g/l in culture medium

In the case of `CCCCCCCCCCC/C=C\CCCCC(=O)O` [Petroselinic acid], the “description of the odour notes” value [1] is reported as “fresher notes with scents described as “green” and “putty””, the “resulting odour as perceived by the panel of experts” value [1] is reported as “more pleasant” and the “description of the scent” value [2] is reported as “scent described as “putty””. The “perception of the odour” value [2] was “more pleasant”, the amount of aldehydes (Corynebacterium striatum [3]; [9]) was “significant reduction” and the “concentration of ketone compounds” value (Corynebacterium striatum [3]; [10]) was “greater concentration”. For the same compound, the “aldehydes in the odour profile” value [4, 9] was “noticeable reduction”, the “concentration of ketone compounds” value [4, 10] was “greater concentration” and the amount of aldehydes [5, 9] was “significant reduction”. The “concentration of ketone compounds” value [5, 10] was “greater concentration”, the “description of the odour notes” value (Corynebacterium striatum [6]) was “fresher notes with scents described as “green” and “putty”” and the “resulting odour as perceived by the panel of experts” value (Corynebacterium striatum [6]) was “more pleasant”.
`Oc1cc(Cl)ccc1Oc1ccc(Cl)cc1Cl` [Triclosan, 2,4,4′-trichloro-2′-hydroxydiphenyl ether] showed an MIC (Corynebacterium striatum [7]) of 10 µg/mL (≈ 34.5 µM), an MIC (Corynebacterium xerosis) of 50 µg/mL (≈ 173 µM) and an MIC [8] of 25 µg/mL (≈ 86.3 µM).

Source: patent US20180207069A1, “COSMETIC USE OF A MONOUNSATURATED FATTY ACID OR ONE OF ITS SALTS AND/OR OF ITS ESTERS AS DEODORANT ACTIVE AGENT” (L'OREAL, priority 2012, published 2018)
